In US20240228446A1, “PREPARATION METHOD FOR BICYCLIC COMPOUND AND APPLICATION AS ANTIFUNGAL AGENT” (priority 2021, published 2024):
Converted amounts (≈) assume the structure as drawn.

Legend:
[1] = system: Aspergillus fumigatus ATCC MYA-4609; assay: Minimal inhibitory concentration (MIC) test on fungal growth (CLSI M38, Aspergillus); type: cell-based; details: lowest concentration inhibiting Aspergillus by 100%, 35° C., 48 hours, RPMI1640; for MIC: Aspergillus fumigatus, read-out: MIC Aspergillus fumigatus ATCC MYA-4609
Description: • RPMI1640 medium: Brand: Gibco, article number: 31800-014 • Sabouraud dextrose agar (SDA): Brand: Hope Bio, article number: HB0253-81 • Voriconazole: Brand: Adamas, article number: 22105A • Amphotericin B: Brand: AbCam, article number: ab141199
MIC test was conducted in accordance with the guidelines and requirements of CLSI M27 (for yeasts) and M38 (for Aspergillus).
Strain preparation: The strains were inoculated 1 day in advance by streaking on SDA plates with glycerol strains stored at −80° C. The strains were cultured at 35° C. and 40 to 60% humidity for 18 to 24 hours. Streak inoculation of Aspergillus fumigatus and Cryptococcus neoformans was required to be done 3 days and 2 days in advance, respectively.
Preparation of culture medium and compounds: The liquid culture medium RPMI was prepared with pure water, and 0.165 mol/L MOPS was added to adjust the pH to 7.0. The mixture was filtered with a 0.22 μm-membrane filter, sterilized, and stored at 4° C. (no more than 3 months). 0.85% physiological saline was sterilized at 121° C. for 30 min and then stored at room temperature (no more than 1 week). The compounds were dissolved in DMSO to 12.8 mg/mL and stored at −20° C.
For Aspergillus, 5 mL of physiological saline was added to cover the mycelium, and the spores were gently scraped off with a spreader. The spore suspension was then transferred to a sterile test tube. An appropriate amount of spore suspension was taken and counted under a microscope using a hemocytometer. Spore concentration was adjusted to approximately 0.4 to 5×10^4 spores/mL using RPMI1640 medium.
The compound was diluted to the highest 800 μg/mL (or 400 μg/mL) with DMSO, and a 10-step 2-fold gradient dilution was performed, resulting in 11 concentrations. 2 μL of the gradient-diluted compound was transferred to the corresponding wells of a 96-well plate, and then 198 μL of the inoculum was transferred to the test plate. The plate was incubated at 35° C. for 24 hours (Aspergillus fumigatus and Cryptococcus neoformans were incubated for 48 and 72 hours, respectively).
After the incubation, the growth of the fungi was visually observed. The lowest concentration of the compound that inhibited the growth of yeast by 50% (inhibited Aspergillus by 100%) was defined as the minimum inhibitory concentration (MIC, μg/mL). A magnifying glass or reading at OD530 nm could be used to assist in determining the MIC. Photos were taken of the test plates for record keeping.

[2] = system: Candida albicans ATCC MYA-2876; assay: Minimal inhibitory concentration (MIC) test on fungal growth (CLSI M27, yeasts); type: cell-based; details: lowest concentration inhibiting growth of yeast by 50%, 35° C., 24 hours, RPMI1640; for MIC: Candida albicans, read-out: MIC Candida albicans ATCC MYA-2876
How it was run: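 Broth microdilution followed CLSI M27 in RPMI1640 buffered with 0.165 M MOPS, pH 7.0, with a final inoculum of 500–2500 CFU/mL. Eleven 2-fold compound concentrations were tested, and plates were incubated 24 h at 35 °C. MIC was the lowest concentration giving 50% growth inhibition, read visually with optional OD530 assistance.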

[3] = Drug-drug interaction / pharmacokinetic study of single drug and combination with nifedipine by gavage; details: CD1 mice, ketoconazole 30 mg/kg alone vs ketoconazole 30 mg/kg + nifedipine 15 mg/kg
Description: The dosing solution was prepared on the day of administration. An appropriate amount of nifedipine was precisely weighed into a centrifuge tube, then an appropriate volume of 0.5% MC was added thereto and vortexed to dissolve, resulting in a dosing solution with a concentration of 1.5 mg/mL.
Appropriate amounts of ketoconazole and isavuconazonium sulfate (CAS #946075-13-4) were precisely weighed and placed into separate centrifuge tubes. An appropriate volume of 0.5% MC was added to each tube and vortexed to dissolve, resulting in dosing solutions with concentrations of 3 mg/mL and 12 mg/mL, respectively.
An appropriate amount of the compound of the example of the present disclosure was precisely weighed into a centrifuge tube, then an appropriate volume of 16% SBECD was added thereto and vortexed to dissolve, resulting in a dosing solution with a concentration of 10 mg/mL.
CD1 mice, 6 to 8 weeks old, male, were divided into seven groups. […]

| MIC Aspergillus fumigatus ATCC MYA-4609 [1] [µg/mL] | MIC Candida albicans ATCC MYA-2876 [2] [µg/mL] | MIC [1] [µg/mL] | MIC [2] [µg/mL] | SMILES | exposure to ketoconazole, monotherapy group vs combination therapy group [3] |
| --- | --- | --- | --- | --- | --- |
| 8 (≈ 14.3 µM) | 0.0078 (≈ 0.0139 µM) | – | – | OC(COc1ccc(C23CC(C(F)(F)C(O)(Cn4cnnn4)c4ccc(F)cc4F)(C2)C3)cc1)CC(F)(F)F (centres unmarked) [Compound 142] | – |
| – | – | 8 (≈ 15.4 µM) | 0.0078 (≈ 0.015 µM) | OC(COc1ccc(C23CC(C(F)(F)C(O)(Cn4cnnn4)c4ccc(F)cc4F)(C2)C3)cc1)C1CC1 (centres unmarked) [Compound 144] | – |
| – | – | 2 (≈ 3.61 µM) | ≤ 0.0039 | OC1(COc2ccc(C34CC(C(F)(F)[C@](O)(Cn5cnnn5)c5ccc(F)cc5F)(C3)C4)cc2)CC(F)(F)C1 [Compound 149A] | – |
| – | – | 8 (≈ 14.4 µM) | ≤ 0.0039 | OC1(COc2ccc(C34CC(C(F)(F)C(O)(Cn5cnnn5)c5ccc(F)cc5F)(C3)C4)cc2)CC(F)(F)C1 (centres unmarked) [Compound 149] | – |
| – | – | 2 (≈ 3.85 µM) | ≤ 0.0039 | OC1(COc2ccc(C34CC(C(F)(F)C(O)(Cn5cncn5)c5ccc(F)cc5F)(C3)C4)cc2)COC1 (centres unmarked) [Compound 151] | – |
| – | – | – | – | CC(=O)N1CCN(c2ccc(OCC3COC(Cn4ccnc4)(c4ccc(Cl)cc4Cl)O3)cc2)CC1 (centres unmarked) [ketoconazole] | not significantly different |
